From ChEMBL document CHEMBL5108009, “Positron Emission Tomography (PET) Imaging Tracers for Serotonin Receptors” (J Med Chem, 2022)

Assays:
[1] = molecular target: T1, 5-hydroxytryptamine receptor 2A (Homo sapiens, UniProt P28223); assay: Inverse agonist activity at human 5-HT2A receptor incubated for 3 hrs by radioligand binding assay; type: functional
[2] = molecular target: T1, 5-hydroxytryptamine receptor 2A; assay: Antagonist activity at human 5-HT2A receptor incubated for 3 hrs by radioligand binding assay; type: functional
[3] = molecular target: T2, 5-hydroxytryptamine receptor 2B (Homo sapiens, UniProt P41595); assay: Binding affinity to 5-HT2B (unknown origin) assessed as inhibition constant by liquid scintillation counter analysis
[4] = molecular target: T3, 5-hydroxytryptamine receptor 2C (Homo sapiens, UniProt P28335); assay: Binding affinity to 5-HT2C (unknown origin) assessed as inhibition constant by liquid scintillation counter analysis
T3 sequence (P28335 whole entry): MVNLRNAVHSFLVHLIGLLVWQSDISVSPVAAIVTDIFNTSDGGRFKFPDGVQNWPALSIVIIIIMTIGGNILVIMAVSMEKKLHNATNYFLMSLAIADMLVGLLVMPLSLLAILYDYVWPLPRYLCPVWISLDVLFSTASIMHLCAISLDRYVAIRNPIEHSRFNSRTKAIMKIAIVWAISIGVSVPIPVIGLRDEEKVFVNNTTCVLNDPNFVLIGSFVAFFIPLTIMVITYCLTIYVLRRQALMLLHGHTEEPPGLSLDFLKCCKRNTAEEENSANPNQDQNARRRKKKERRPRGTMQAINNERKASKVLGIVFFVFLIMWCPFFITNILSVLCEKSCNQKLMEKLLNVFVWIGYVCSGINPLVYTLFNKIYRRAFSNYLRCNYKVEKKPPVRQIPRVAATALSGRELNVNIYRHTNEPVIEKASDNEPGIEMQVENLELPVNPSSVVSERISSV

[5] = molecular target: 5-hydroxytryptamine receptor 2A (Rattus norvegicus, UniProt P14842); assay: Binding affinity to rat 5-HT2A assessed as inhibition constant by liquid scintillation counter analysis
[6] = molecular target: Serotonin 3 (5-HT3) receptor; assay: Binding affinity to 5-HT3 receptor (unknown origin) assessed as inhibition constant; type: protein-complex assay, Homo sapiens
[7] = molecular target: T2, 5-hydroxytryptamine receptor 2B
[8] = molecular target: T4, 5-hydroxytryptamine receptor 1D (Homo sapiens, UniProt P28221); assay: Binding affinity to human 5-HT1D expressed in CHO cells assessed as inhibition constant incubated for 1 hr by Cheng-Prusoff equation analysis; type: cell-based
[9] = Drug uptake in pig brain cortex assessed as non-displaceable binding potential; type: ADME, tissue-based, Sus scrofa; settings: in vivo
[10] = molecular target: T1, 5-hydroxytryptamine receptor 2A; assay: Binding affinity to human 5-HT2A assessed as inhibition constant
[11] = molecular target: T3, 5-hydroxytryptamine receptor 2C; assay: Binding affinity to human 5-HT2C assessed as inhibition constant
[12] = Drug uptake in pig brain cortex measured at 10 to 20 mins postinjection; type: ADME, organism-based, Sus scrofa; settings: in vivo, time 10-20 min
[13] = molecular target: 5-hydroxytryptamine receptor 6 (Homo sapiens, UniProt P50406); assay: Binding affinity to human recombinant 5-HT6 receptor assessed as inhibition constant
[14] = Drug uptake in Papio anubis striatum relative to control; type: ADME, tissue-based
[15] = molecular target: T1, 5-hydroxytryptamine receptor 2A; assay: Binding affinity to human recombinant 5-HT2A assessed as inhibition constant
[16] = Drug uptake in human striatum relative to control; type: ADME, tissue-based
[17] = Drug uptake in pig striatum relative to control; type: ADME, tissue-based, Sus scrofa; settings: in vivo
[18] = Ratio of drug uptake in human striatum to cerebellum; type: ADME, tissue-based
[19] = Ratio of drug uptake in baboon cerebral cortex to cerebellum measured at 60 mins postinjection; type: ADME, organism-based, Papio; settings: in vivo, 1 h
[20] = Ratio of drug uptake in human frontal cortex to cerebellum; type: ADME, tissue-based, Brain frontal cortex/cerebellum
[21] = Ratio of drug uptake in baboon striatum to cerebellum measured at 60 mins postinjection; type: ADME, organism-based, Papio; settings: in vivo, 1 h
[22] = molecular target: T4, 5-hydroxytryptamine receptor 1D; assay: Binding affinity to 5-HT1D (unknown origin) assessed as inhibition constant
[23] = molecular target: T5, 5-hydroxytryptamine receptor 1A (Homo sapiens, UniProt P08908)
T5 sequence (P08908 whole entry): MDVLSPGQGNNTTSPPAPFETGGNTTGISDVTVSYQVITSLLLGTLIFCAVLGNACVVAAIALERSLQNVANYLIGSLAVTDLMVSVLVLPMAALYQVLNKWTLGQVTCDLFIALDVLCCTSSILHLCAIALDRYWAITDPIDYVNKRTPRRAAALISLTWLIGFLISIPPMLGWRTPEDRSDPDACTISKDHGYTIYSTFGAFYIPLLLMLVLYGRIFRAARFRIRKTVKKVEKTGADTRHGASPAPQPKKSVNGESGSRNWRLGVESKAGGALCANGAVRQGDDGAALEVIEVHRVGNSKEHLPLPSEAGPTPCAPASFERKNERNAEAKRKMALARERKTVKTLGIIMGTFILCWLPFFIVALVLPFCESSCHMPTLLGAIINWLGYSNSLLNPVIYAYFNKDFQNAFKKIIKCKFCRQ

[24] = molecular target: T3, 5-hydroxytryptamine receptor 2C
[25] = molecular target: T6, 5-hydroxytryptamine receptor 7 (Homo sapiens, UniProt P34969)
[26] = molecular target: 5-hydroxytryptamine receptor 1F (Homo sapiens, UniProt P30939); assay: Binding affinity to human 5-HT1F assessed as inhibition constant
[27] = molecular target: 5-hydroxytryptamine receptor 5A (Homo sapiens, UniProt P47898); assay: Binding affinity to 5-HT5A receptor (unknown origin) assessed as inhibition constant
[28] = Drug uptake in human brain; type: ADME, tissue-based
[29] = molecular target: 5-hydroxytryptamine receptor 4 (Homo sapiens, UniProt Q13639); assay: Binding affinity to 5-HT4 receptor (unknown origin) assessed as inhibition constant
[30] = molecular target: T6, 5-hydroxytryptamine receptor 7; assay: Binding affinity to human 5-HT7 receptor transfected by pcDNA3.1(+) vector in HEK293 cells assessed as inhibition constant by Cheng-Prusoff equation analysis; type: cell-based
[31] = In vivo binding affinity of Papio anubis baboon 5-HT2C assessed as inhibition constant measured after 1 to 21 mins postinjection; type: functional, organism-based
[32] = molecular target: T2, 5-hydroxytryptamine receptor 2B; assay: Displacement of [3H]-mesulergine from 5-HT2B (unknown origin) assessed as inhibition constant by radioligand competitive binding assay
[33] = molecular target: T3, 5-hydroxytryptamine receptor 2C; assay: Displacement of [3H]-mesulergine from 5-HT2C (unknown origin) assessed as inhibition constant by radioligand competitive binding assay
[34] = molecular target: T5, 5-hydroxytryptamine receptor 1A; assay: Displacement of [3H]-mesulergine from 5-HT1A (unknown origin) assessed as inhibition constant by radioligand competitive binding assay

T1 sequence (P28223 whole entry): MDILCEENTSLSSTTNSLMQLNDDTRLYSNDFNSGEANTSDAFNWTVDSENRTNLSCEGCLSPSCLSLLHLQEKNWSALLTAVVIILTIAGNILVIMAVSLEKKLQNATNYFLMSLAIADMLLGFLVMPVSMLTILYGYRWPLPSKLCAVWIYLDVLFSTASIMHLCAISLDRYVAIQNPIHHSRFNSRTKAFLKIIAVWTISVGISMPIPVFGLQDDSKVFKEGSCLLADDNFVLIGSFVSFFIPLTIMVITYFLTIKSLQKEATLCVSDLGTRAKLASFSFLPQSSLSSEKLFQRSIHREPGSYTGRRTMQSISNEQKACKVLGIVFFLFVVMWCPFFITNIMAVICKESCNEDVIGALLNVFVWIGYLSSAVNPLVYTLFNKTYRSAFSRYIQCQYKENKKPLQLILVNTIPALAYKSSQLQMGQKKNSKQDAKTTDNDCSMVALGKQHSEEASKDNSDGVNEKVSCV
T2 sequence (P41595 whole entry): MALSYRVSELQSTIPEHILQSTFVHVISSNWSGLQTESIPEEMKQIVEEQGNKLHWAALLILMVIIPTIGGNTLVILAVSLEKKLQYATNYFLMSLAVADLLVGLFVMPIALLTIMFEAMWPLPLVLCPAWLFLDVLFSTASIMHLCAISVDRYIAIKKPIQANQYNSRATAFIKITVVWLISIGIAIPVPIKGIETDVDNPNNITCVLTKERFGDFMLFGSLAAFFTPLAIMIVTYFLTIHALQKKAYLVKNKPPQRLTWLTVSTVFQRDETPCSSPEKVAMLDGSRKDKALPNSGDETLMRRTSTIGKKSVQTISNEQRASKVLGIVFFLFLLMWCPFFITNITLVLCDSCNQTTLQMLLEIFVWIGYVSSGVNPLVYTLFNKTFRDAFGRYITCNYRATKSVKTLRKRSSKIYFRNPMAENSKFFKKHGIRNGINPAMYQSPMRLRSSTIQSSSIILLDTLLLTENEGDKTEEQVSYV
T4 sequence (P28221 whole entry): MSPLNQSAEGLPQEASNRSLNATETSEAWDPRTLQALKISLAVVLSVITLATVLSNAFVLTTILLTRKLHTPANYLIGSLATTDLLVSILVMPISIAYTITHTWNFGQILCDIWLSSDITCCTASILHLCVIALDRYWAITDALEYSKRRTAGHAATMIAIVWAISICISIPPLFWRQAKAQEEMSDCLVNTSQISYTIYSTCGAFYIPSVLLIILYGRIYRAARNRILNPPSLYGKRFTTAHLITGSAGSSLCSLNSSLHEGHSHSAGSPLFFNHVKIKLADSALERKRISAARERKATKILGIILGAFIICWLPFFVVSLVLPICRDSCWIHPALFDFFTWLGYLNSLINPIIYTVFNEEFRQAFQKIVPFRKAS
T6 sequence (P34969 whole entry): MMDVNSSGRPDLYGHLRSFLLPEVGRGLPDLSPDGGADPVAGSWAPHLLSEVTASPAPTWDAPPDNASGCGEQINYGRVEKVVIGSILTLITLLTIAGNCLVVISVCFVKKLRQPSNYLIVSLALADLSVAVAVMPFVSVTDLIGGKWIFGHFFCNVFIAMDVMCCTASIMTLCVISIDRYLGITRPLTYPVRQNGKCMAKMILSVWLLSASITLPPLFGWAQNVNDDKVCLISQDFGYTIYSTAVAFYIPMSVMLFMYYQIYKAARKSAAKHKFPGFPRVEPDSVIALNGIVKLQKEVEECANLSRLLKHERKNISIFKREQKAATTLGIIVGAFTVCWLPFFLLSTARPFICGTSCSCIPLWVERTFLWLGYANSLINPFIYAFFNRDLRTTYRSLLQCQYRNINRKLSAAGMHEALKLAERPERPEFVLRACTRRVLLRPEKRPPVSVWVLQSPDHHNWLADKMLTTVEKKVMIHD
Sequence of 5-hydroxytryptamine receptor 5A (P47898 whole entry): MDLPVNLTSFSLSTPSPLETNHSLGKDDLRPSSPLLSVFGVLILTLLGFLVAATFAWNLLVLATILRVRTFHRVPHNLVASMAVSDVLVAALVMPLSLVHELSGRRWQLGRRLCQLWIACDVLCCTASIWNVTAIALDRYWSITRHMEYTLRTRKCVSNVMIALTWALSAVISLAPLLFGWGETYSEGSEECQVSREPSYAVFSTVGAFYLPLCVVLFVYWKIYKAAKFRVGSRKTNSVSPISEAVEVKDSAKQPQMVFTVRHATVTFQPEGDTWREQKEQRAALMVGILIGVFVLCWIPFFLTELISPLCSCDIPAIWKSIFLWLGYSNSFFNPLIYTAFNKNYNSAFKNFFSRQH
Sequence of 5-hydroxytryptamine receptor 1F (P30939 whole entry): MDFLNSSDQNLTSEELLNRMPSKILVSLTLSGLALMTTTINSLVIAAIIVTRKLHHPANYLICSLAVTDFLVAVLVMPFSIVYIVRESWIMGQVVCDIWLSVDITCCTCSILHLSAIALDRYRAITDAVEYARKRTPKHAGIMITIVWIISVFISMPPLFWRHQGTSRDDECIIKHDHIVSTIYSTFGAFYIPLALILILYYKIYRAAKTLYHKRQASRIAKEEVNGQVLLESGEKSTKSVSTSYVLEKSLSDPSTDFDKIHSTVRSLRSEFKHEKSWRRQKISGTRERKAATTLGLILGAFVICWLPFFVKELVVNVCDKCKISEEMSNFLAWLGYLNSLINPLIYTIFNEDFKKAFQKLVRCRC
Sequence of 5-hydroxytryptamine receptor 2A (Rattus norvegicus, UniProt P14842) (P14842 whole entry): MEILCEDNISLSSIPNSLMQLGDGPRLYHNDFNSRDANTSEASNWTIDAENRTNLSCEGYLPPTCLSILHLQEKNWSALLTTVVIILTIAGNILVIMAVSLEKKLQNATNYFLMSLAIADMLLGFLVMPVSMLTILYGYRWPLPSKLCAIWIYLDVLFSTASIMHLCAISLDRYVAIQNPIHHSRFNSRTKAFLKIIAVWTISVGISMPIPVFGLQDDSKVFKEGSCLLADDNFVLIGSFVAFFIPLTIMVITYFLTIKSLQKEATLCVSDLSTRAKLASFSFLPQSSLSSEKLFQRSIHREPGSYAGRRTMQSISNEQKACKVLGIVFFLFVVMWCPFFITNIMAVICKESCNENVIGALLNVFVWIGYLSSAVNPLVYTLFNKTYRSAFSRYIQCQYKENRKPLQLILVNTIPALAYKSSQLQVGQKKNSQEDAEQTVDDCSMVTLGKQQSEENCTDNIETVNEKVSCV
Sequence of 5-hydroxytryptamine receptor 4 (Q13639 whole entry): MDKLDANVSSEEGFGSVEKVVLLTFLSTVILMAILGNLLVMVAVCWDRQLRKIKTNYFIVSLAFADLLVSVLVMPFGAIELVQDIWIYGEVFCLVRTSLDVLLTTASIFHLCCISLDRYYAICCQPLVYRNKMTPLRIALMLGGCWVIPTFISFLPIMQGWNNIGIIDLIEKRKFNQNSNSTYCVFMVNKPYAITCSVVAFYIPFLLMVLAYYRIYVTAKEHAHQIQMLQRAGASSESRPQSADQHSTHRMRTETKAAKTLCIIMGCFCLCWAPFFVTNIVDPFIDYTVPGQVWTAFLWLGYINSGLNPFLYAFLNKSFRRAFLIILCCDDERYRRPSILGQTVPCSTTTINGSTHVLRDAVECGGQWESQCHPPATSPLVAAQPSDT
Sequence of 5-hydroxytryptamine receptor 6 (P50406 whole entry): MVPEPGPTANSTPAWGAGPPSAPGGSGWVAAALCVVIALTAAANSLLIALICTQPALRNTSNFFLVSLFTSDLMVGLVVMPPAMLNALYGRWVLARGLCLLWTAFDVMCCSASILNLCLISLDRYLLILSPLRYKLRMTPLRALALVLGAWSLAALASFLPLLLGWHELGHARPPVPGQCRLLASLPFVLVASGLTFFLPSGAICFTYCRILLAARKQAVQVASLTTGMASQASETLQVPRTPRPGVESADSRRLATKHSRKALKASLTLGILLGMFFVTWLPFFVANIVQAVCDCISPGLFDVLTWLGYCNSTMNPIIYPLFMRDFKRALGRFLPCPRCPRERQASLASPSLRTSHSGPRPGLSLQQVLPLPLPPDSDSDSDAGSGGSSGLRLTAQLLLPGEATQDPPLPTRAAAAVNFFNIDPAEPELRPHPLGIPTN

Molecule `COc1ccc(C(=O)N(Cc2ccc(C)cc2)C2CCN(C)CC2)cc1` has a Ki [1] of 2.1 nM and a Ki [2] of 2.5 nM.
Work on `COc1cc(CCNCc2ccccc2OC)c(OC)cc1I` yielded a Ki [3] of 2.3 nM, a Ki [4] of 7 nM and a Ki [5] of 2.2 nM.
In the case of `c1ccc(CN2CCN(c3nc4ccsc4n4cccc34)CC2)cc1`, the Ki [6] is reported as 1 nM.
For `CNC(=O)c1ccc2c(c1)CCO[C@H]2CCN1CCN(c2ccc(C(N)=O)cc2)CC1`, the Ki [7] was over 18 µM and the Ki [8] was 6 nM.
For `COc1cc(CCNCc2ccccc2O[11CH3])c(OC)cc1Br`, the Drug uptake [9] was 0.62, the Ki [10] was 0.5 nM and the Ki [11] was 1.7 nM. The SUV [12] was 0.8.
`[11CH3]N1CCN(c2cccc3cc(S(=O)(=O)c4cccc(F)c4)cnc23)CC1` gave a Ki [13] of 0.79 nM, a Drug uptake [14] of 10.5 %Idose/L and a Ki [15] of 0.16 nM. It also gave a Drug uptake [16] of 11.5 %Idose/L and a Drug uptake [17] of 3.5 %Idose/L.
`Cc1nc2n(c(=O)c1CCN1CCC(C(=O)c3ccc([18F])cc3)CC1)CCS2` gave a Ratio [18] of 2.38, a Ratio [19] of 3 and a Ratio [20] of 2.53. For the same molecule, the Ratio [21] was 3.5.
`CN(C)[C@@H]1CCc2[nH]c3ccc(NC(=O)c4ccc(F)cc4)cc3c2C1` showed a Ki [22] of over 500 nM, a Ki [23] of over 500 nM and a Ki [7] of over 0.5 µM. For the same molecule, the Ki [24] was over 500 nM, the Ki [25] was over 500 nM and the Ki [26] was 6 nM. The Ki [27] was over 500 nM.
Work on `[11CH3]N1CCC(COC(=O)c2cc(Cl)c(N)c3c2OCCO3)CC1` yielded an SUVmax [28] of 28 kBq/cm3 and a Ki [29] of 0.3 nM.
With `COc1ccc(-c2c([N+](=O)[O-])ccn2C)cc1` the Ki [30] was 16.8 nM.
`[11CH3]N1CCc2nc3ccnn3c(N3CCC3)c2CC1` showed a Ki [31] of 161 nM, a Ki [32] of over 1000 nM and a Ki [33] of 75 nM. The Ki [34] was over 1000 nM.
